Laboratory results: the supplement of paper PMC7840683
Counter-ions that a name gives are not always drawn. ± gives the standard deviation of the averaged measurements.

System: HepaRG
Assay: LDH release cytotoxicity, % of total lysis control; higher = more cytotoxic
Conditions: 48 h
How it was run: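 Duplicate wells of single-lot HepaRG cells, grown on collagen I-coated 96-well plates, received eight-point half-log series of test chemicals with 100 µM as the top concentration. Exposure lasted 48 h in serum-free induction medium with 0.5% DMSO, while total lysis wells received 0.1% Triton X. Resorufin fluorescence (CytoTox-ONE, Tecan Safire) was used to quantify LDH leaked into 50 µL of spent medium. Values for percent cytotoxicity were normalized to on-plate vehicle and total lysis controls and averaged across the duplicates.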

Row | SMILES | LDH release cytotoxicity (0.03162 µM) [%] | LDH release cytotoxicity (0.1 µM) [%] | LDH release cytotoxicity (0.3162278 µM) [%] | LDH release cytotoxicity (1 µM) [%] | LDH release cytotoxicity (3.16228 µM) [%] | LDH release cytotoxicity (10 µM) [%] | LDH release cytotoxicity (31.6228 µM) [%] | LDH release cytotoxicity (100 µM) [%] | also measured
1 | O=C(CCCCCCCCc1cccnc1)N1CCC(C=C(c2ccccc2)c2ccccc2)CC1 [Ro 23-7637] | 0.3 ± 0.18 | -1.044 ± 0.0079 | -0.912 ± 1.2 | -1.28 ± 0.79 | -1.65 ± 0.1 | -1.03 ± 0.15 | 11.7 ± 0.14 | 63.3 ± 1.2 | –
2 | C=C(C)C1Cc2c(ccc3c2OC2COc4cc(OC)c(OC)cc4C2C3=O)O1 (configuration not stated) [Rotenone] | -3.41 ± 0.1 | -3.52 ± 0.84 | -4.58 ± 0.21 | 4.61 ± 1.4 | 19.6 ± 4.5 | 48.4 ± 1.8 | 71.8 ± 1.5 | 72.3 ± 0.95 | –
3 | C=CCC1=C(C)C(OC(=O)C2C(C=C(C)C)C2(C)C)CC1=O (configuration not stated) [S-Bioallethrin] | – | – | – | – | – | – | – | – | LDH release cytotoxicity (0.0147 µM): -2.51 ± 0.52%; LDH release cytotoxicity (0.0465 µM): -1.46 ± 0.56%; LDH release cytotoxicity (0.147046 µM): -1.76 ± 0.23%; LDH release cytotoxicity (0.465 µM): -2.13 ± 0.17%; LDH release cytotoxicity (1.4704591 µM): -1.73 ± 0.45%; LDH release cytotoxicity (4.65 µM): -1.51 ± 0.71%; LDH release cytotoxicity (14.7046 µM): -0.957 ± 0.95%; LDH release cytotoxicity (46.5 µM): 0.422 ± 0.55%
4 | C=CCc1ccc2c(c1)OCO2 [Safrole] | -1.32 ± 2.9 | -2.757 ± 0.0064 | -3.53 ± 1 | -4.07 ± 0.0064 | -3.36 ± 0.43 | -2.27 ± 1.1 | -1.93 ± 2.5 | 1.79 ± 3.3 | –
5 | CCCC(=NOCC)C1C(=O)CC(CC(C)SCC)CC1=O (configuration not stated) [Sethoxydim] | – | – | – | – | – | – | – | – | LDH release cytotoxicity (0.0317809 µM): -1.15 ± 0.24%; LDH release cytotoxicity (0.1005 µM): -1.26 ± 0.2%; LDH release cytotoxicity (0.317809 µM): -1.36 ± 1.4%; LDH release cytotoxicity (1.005 µM): -1.93 ± 0.12%; LDH release cytotoxicity (3.17809 µM): -1.21 ± 0.21%; LDH release cytotoxicity (10.05 µM): -0.579 ± 0.73%; LDH release cytotoxicity (31.7809 µM): -0.893 ± 0.41%; LDH release cytotoxicity (100.5 µM): 0.566 ± 0.081%
6 | O=[Si]=O [Silica] | -1.16 ± 0.54 | -1.07 ± 0.26 | -1.23 ± 0.016 | -0.971 ± 0.66 | -1.72 ± 0.45 | -1.27 ± 0.37 | -0.861 ± 1 | 0.501 ± 1.1 | –
7 | CCNc1nc(Cl)nc(NCC)n1 [Simazine] | -0.667 ± 0.47 | -1.85 ± 0.54 | -2.13 ± 0.56 | -2.25 ± 0.22 | -2.26 ± 0.15 | -1.94 ± 0.14 | -0.91 ± 0.2 | -0.579 ± 0.64 | –
8 | O=[N+]([O-])c1ccc(O)cc1 [Sodium 4-nitrophenolate] | -0.704 ± 0.2 | -1.68 ± 0.15 | -1.99 ± 0.34 | -1.48 ± 0.37 | -1.71 ± 0.25 | -1.02 ± 0.3 | -0.45 ± 0.45 | 0.91 ± 0.54 | –
9 | [O-][n+]1ccccc1S [Sodium (2-pyridylthio)-N-oxide] | -1.41 ± 0.6 | -0.73 ± 0.66 | -1.67 ± 0.53 | -0.357 ± 1.3 | -1.51 ± 0.23 | -1.01 ± 0.22 | -0.585 ± 0.072 | 1.58 ± 0.14 | –
10 | [N-]=[N+]=[N-] [Sodium azide] | -0.587 ± 0.19 | -0.947 ± 0.078 | -1.17 ± 1.3 | -1.29 ± 0.45 | -1.23 ± 0.56 | -0.668 ± 0.061 | -0.413 ± 0.77 | 7.38 ± 1.2 | –
11 | O=C(O)c1ccccc1 [Sodium benzoate] | – | -2.13 ± 1.3 | – | -3.15 ± 0.39 | -2.88 ± 0.63 | -2.37 ± 0.27 | -1.36 ± 0.096 | -0.292 ± 1.2 | LDH release cytotoxicity (0.031623 µM): 0.689 ± 0.63%; LDH release cytotoxicity (0.316228 µM): -2.23 ± 0.31%
12 | [O-][Cl+]O [Sodium chlorite] | 0.165 ± 0.73 | 0.219 ± 1.2 | -0.973 ± 0.84 | -1.49 ± 0.98 | -1.49 ± 0.44 | 0.0935 ± 0.52 | -0.775 ± 0.093 | 1.68 ± 0.64 | –
13 | CC(=O)C1C(=O)C=C(C)OC1=O (configuration not stated) [Sodium dehydroacetate] | -0.267 ± 0.55 | -1.4 ± 0.22 | -2.06 ± 0.58 | -1.85 ± 0.29 | -2.36 ± 0.14 | -1.16 ± 0.3 | -0.728 ± 0.029 | 0.541 ± 0.069 | –
14 | CN(C)C(=S)S [Sodium dimethyldithiocarbamate] | -0.405 ± 0.41 | -0.29 ± 1 | -0.988 ± 0.04 | -0.72 ± 0.44 | -0.138 ± 0.64 | 0.154 ± 0.44 | 0.196 ± 0.41 | 2.63 ± 2.6 | –
15 | CCCCCCCCCCCCOS(=O)(=O)O [Sodium dodecyl sulfate] | -0.308 ± 0.48 | -0.693 ± 0.47 | -1.14 ± 0.2 | -0.62 ± 0.91 | -1.89 ± 0.58 | -1.05 ± 0.87 | 0.0441 ± 0.35 | 10.1 ± 0.28 | –
16 | CCCCCCCCCCCCc1ccccc1S(=O)(=O)O [Sodium dodecylbenzenesulfonate] | -1.64 ± 0.19 | -2.37 ± 0.1 | -2.11 ± 0.97 | -2.14 ± 0.36 | -1.89 ± 0.21 | -2.56 ± 1.3 | -1.08 ± 0.42 | 49.9 ± 3.5 | –
17 | CCCCCCCCCCCCCCCCOS(=O)(=O)O [Sodium hexyldecyl sulfate] | – | – | – | – | – | – | – | – | LDH release cytotoxicity (0.01581 µM): -0.927 ± 0.59%; LDH release cytotoxicity (0.05 µM): -0.892 ± 0.52%; LDH release cytotoxicity (0.1581139 µM): -1.25 ± 0.18%; LDH release cytotoxicity (0.5 µM): -1.53 ± 0.15%; LDH release cytotoxicity (1.5811388 µM): -0.623 ± 0.48%; LDH release cytotoxicity (5 µM): -0.974 ± 0.097%; LDH release cytotoxicity (15.8114 µM): -0.978 ± 0.78%; LDH release cytotoxicity (50 µM): 10.6 ± 1.9%
18 | CCCCCCCCCCCCCCOS(=O)(=O)O [Sodium myristyl sulfate] | -2.12 ± 0.45 | -2.09 ± 0.56 | -2.4 ± 1.5 | -2.13 ± 0.48 | -2.25 ± 0.37 | -1.43 ± 0.37 | -1.69 ± 0.59 | 12.5 ± 6.7 | –
19 | O=NO [Sodium nitrite] | -3.61 ± 3.5 | 0.52 ± 1.1 | -0.867 ± 0.14 | -2.02 ± 0.5 | -1.06 ± 0.48 | -0.549 ± 0.34 | -1.15 ± 0.46 | 0.684 ± 0.51 | –
